Patent US8735590B2, “Bicyclo-heptan-2-amines” (priority 2011, dated 2014)

Key:
Sigma-1 receptor = target: T1, Sigma-1 receptor (Rattus norvegicus, UniProt Q9R0C9); experiment: NIMH-PDSP receptor binding, Sigma-1 (radioligand Pentazocine(+), brain)
T1 construct: from tissue; NIMH-PDSP)
Experimental: (§1) Compounds 5a, 5b and 5c were accepted into the National Institute of Mental Health Psychoactive Drug Screening Program, NIMH-PDSP, National Institutes of Health (NIH). Each compound was evaluated for affinity at human or rat receptors. Sites to be evaluated were chosen based on known or suspected sites of interaction with related compounds. The receptors evaluated, radio-labeled ligand, species and receptor source are depicted in Table 1. Experimental details and procedure can be found through Assay Protocol Book, National Institute of Mental Health Psychoactive Drug Screening Program, University of North Carolina at Chapel Hill.

Sigma-2 receptor = target: T2, Sigma-2 receptor (Rattus norvegicus, UniProt Q5U3Y7); experiment: NIMH-PDSP receptor binding, Sigma-2 (radioligand DTG, PC12)
T2 construct: endogenous in cells
T2 sequence (Q5U3Y7 1-176): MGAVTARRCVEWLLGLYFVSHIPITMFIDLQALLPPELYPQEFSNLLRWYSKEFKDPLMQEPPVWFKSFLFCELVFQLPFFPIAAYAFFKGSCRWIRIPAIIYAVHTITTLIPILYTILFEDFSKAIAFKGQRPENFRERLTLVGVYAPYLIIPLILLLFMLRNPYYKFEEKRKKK
Experimental: as §1

N2a cells = experiment: MTT cell viability assay in N2a cells; format: cell-based, Mouse; details: 10-500 μM, FIG. 4A
Source text: (§2) We evaluated the effect of compounds 5a, 5b and 5c on cell viability in the neuronal cell line N2a and in the Madin-Darby canine kidney (MDCK) cell line, a blood-brain barrier model. Memantine, an NMDA glutamate receptor antagonist, was used as a negative control.
(§3) Mouse Neuro-2a (CCL-131, ATCC) and MDCK (CCL-34, ATCC) were routinely propagated using Eagle's Minimum Essential Medium (EMEM, ATCC), supplemented with 10% fetal bovine serum (FBS, ATCC) and 1% penicillin/streptomycin (Gibco) in 100 cm^2 Petri-dishes (Corning) at 37° C. in 5% CO2. Compounds 5a, 5b and 5c were obtained as salts. Stock solutions (1 mM) were prepared in double distilled water. The treatment concentrations for the compounds and the memantine control were 10, 50, 100, 200, 300, and 500 μM. Cells were allowed to attach overnight prior to treatment. H2O2 served as positive control. Working concentrations were prepared immediately prior to treatment by dilution into medium.
(§4) Cell viability was assayed using the MTT (3-(4,5-dimethylthiazole-2-yl)-2,5-diphenyltetrazoliumbromide) assay (ATCC) according to manufacturer's instructions. Cells were plated at a concentration of 13,000 to 20,000 cells/well on a 96-well round-bottom plate. MTT assay. The following determinants were optimized for each cell line: plating cell concentration; incubation time with MTT reagent, and incubation time with detergent reagent. Absorbance was recorded at 570 nm by a microtiter plate reader (VICTOR^3, PerkinElmer). This experiment was repeated on three separate occasions and results were presented as the mean absorbance±SD.

MDCK cells = experiment: MTT cell viability assay in MDCK cells; format: cell-based, canine; details: 10-500 μM, FIG. 3A
Source text: as §2, §3, §4

MCF-7 cells = experiment: MTT cell viability assay in MCF-7 breast carcinoma cells; format: cell-based, human; details: 24 hours; for effect on cell viability in MCF-7 cells: MTT assay, 10 μM to 500 μM, FIG. 6; for percent survival of untreated control cells: MTT
Experimental: (§5) We also evaluated the effect of compounds 5a, 5b and 5c on the human glioma cell line U-138 and the human breast carcinoma cell line MCF-7. Doxorubicin, a clinically used anticancer compound, served as a positive control.
(§6) Cell viability was assayed using the MTT assay essentially as described in Example 8. Adherent cells were trypsinized and placed into 96-well flat bottom tissue culture plates in 100 μl of supplemented Dulbecco's Modified Eagles Media (DMEM) at 10,000 cells/well for 24 hours. Cells were treated with the compounds for 24 hours at concentrations ranging from 10 μM to 500 μM. Cells were incubated with MTT reagent for 4 hours followed with MTT detergent for 24 hours. Plates were read on a computerized microplate ELISA reader at an optical density of 570 nm. The percent cytotoxicity was determined by the ratio of treated optical densities to control optical densities (OD) from one and multiplying by 100. The concentration giving 50% cytotoxicity, IC50, was determined from the dose response curves for each cell line using the GraphPad Prism software package. Each experiment was performed three separate times and the data presented are the pooled results of the three experiments.

U-138 glioma cells = experiment: MTT cell viability assay in U-138 glioma cells; format: cell-based, human; details: 24 hours, 10 μM to 500 μM, FIG. 5
Experimental: as §5, §6

MES-induced seizures = experiment: Maximal Electroshock Test (MES), tonic-clonic seizure model; format: in vivo; details: mice
Experimental: Compounds 5a, 5b and 5c were evaluated in for the ability to modulate seizures using the Maximal Electroshock Test (MES), a model for generalized tonic-clonic seizures that can provide an indication of a compound's ability to prevent seizure spread when all neuronal circuits in the brain are maximally active. For all tests based on MES convulsions, 60 Hz of alternating current (50 mA in mice) was delivered for […] by corneal electrodes which had been primed with an electrolyte solution containing an anesthetic agent (0.5% tetracaine HCL). Mice were tested at various intervals following doses of 30, 100 and 300 mg/kg of test compound given by i.p. injection of a volume of 0.01 mUg. An animal was considered “protected” from MES-induced seizures upon abolition of the hindlimb tonic extensor component of the seizure. Compound 5c was active at 100 and 300 mg/kg.

T1 sequence (Q9R0C9 whole entry): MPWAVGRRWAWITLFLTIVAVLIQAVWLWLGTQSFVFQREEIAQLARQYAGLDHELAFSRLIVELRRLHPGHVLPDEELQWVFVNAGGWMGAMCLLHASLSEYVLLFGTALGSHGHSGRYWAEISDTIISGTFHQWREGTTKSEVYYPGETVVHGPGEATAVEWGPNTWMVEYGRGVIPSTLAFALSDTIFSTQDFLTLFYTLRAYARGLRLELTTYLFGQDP

| Compound | Ki (Sigma-1 receptor) [nM] | Ki (Sigma-2 receptor) [nM] | effect on cell viability in N2a cells (N2a cells) | effect on cell viability in MDCK cells (MDCK cells) | effect on cell viability in MCF-7 cells (MCF-7 cells) | effect on cell viability in U-138 glioma cells (U-138 glioma cells) | percent survival of untreated control cells (MCF-7 cells; 200 μM) [%] | percent survival of untreated control cells (MCF-7 cells; 300 μM) [%] | percent survival of untreated control cells (MCF-7 cells; 500 μM) [%] | activity in MES test (protection from MES-induced seizures) (MES-induced seizures; 100 mg/kg i.p.) | activity in MES test (protection from MES-induced seizures) (MES-induced seizures; 300 mg/kg i.p.) |
| --- | --- | --- | --- | --- | --- | --- | --- | --- | --- | --- | --- |
| c1ccc(C2(NCCCN3CCCCC3)CC3CCC2C3)cc1 (racemic) [Compound 5a, (±)-2-Phenyl-N-(3-(piperidin-1-yl)propyl)bicyclo[2.2.1]heptan-2-amine] | > 10000 | 9.6 | dose-dependent reduction in cell viability | minimal effects on cell viability | dose-dependent reduction in cell viability |  |  |  |  |  |  |
| Fc1ccc(C2(NCCCN3CCCCC3)CC3CCC2C3)cc1 (racemic) [Compound 5b, (±)-2-(4-Fluorophenyl)-N-(3-(piperidin-1-yl)propyl)bicyclo[2.2.1]heptan-2-amine] | > 10000 | 16 | dose-dependent reduction in cell viability | minimal effects on cell viability | dose-dependent reduction in cell viability | dose-dependent effect on cell viability | 70 | 63 | 16 |  |  |
| Fc1ccc(C2(NCCCOC3CCCCO3)CC3CCC2C3)cc1 (racemic) [Compound 5c, 2-(4-Fluorophenyl)-N-(3-(tetrahydro-2H-pyran-2-yloxy)propyl)bicyclo[2.2.1]heptan-2-amine] | > 10000 | 5.5 | dose-dependent reduction in cell viability | minimal effects on cell viability | dose-dependent reduction in cell viability |  |  |  |  | active | active |
